These results are taken from ChEMBL document CHEMBL4296182, “CO-ADD screening of NIH NCI Diversity Set V”.

As usually defined, the CC50 is the concentration that lowers cell viability or growth by half.

The structures appear in SMILES notation. In brackets after ≈: the same amount, converted by molar mass. Bounds are passed on as bounds.

One test deals with Acinetobacter baumannii. Nature of the test: microbe, parasite or virus in culture. The conditions noted are these: ATCC 19606, 18 h, ASSAY_TEST Inhibition of Bacterial Growth, detection method Absorption (OD600), MEDIA CAMHB, plate type 384well, NBS, CORNING #3640.
Another test relates to Escherichia coli. Nature of the test: microbe, parasite or virus in culture. Particulars: ATCC 25922, 18 h, ASSAY_TEST Inhibition of Bacterial Growth, detection method Absorption (OD600), MEDIA CAMHB, plate type 384well, NBS, CORNING #3640.
A further test deals with Staphylococcus aureus. As to the kind of experiment: microbe, parasite or virus in culture. Particulars: ATCC 43300, 18 h, ASSAY_TEST Inhibition of Bacterial Growth, detection method Absorption (OD600), MEDIA CAMHB, plate type 384well, NBS, CORNING #3640.
Another test concerns Klebsiella pneumoniae. As to the kind of experiment: microbe, parasite or virus in culture. The conditions noted are these: ATCC 700603, 18 h, ASSAY_TEST Inhibition of Bacterial Growth, detection method Absorption (OD600), MEDIA CAMHB, plate type 384well, NBS, CORNING #3640.
The test system of another test is HEK293. As to the kind of experiment: cells. It is filed as functional. The conditions noted are these: Homo sapiens, ATCC CRL1573, HEK293; ASSAY_TEST Inhibition of Cell Viability; detection method Resazurin; Fluorescence (ex560/em590); MEDIA DMEM with 10% FBS; plate type 384well; TC; CORNING #3712; time 18 hr.
For the next test, the system named is Pseudomonas aeruginosa. As to the kind of experiment: microbe, parasite or virus in culture. The conditions noted are these: ATCC 27853, 18 h, ASSAY_TEST Inhibition of Bacterial Growth, detection method Absorption (OD600), MEDIA CAMHB, plate type 384well, NBS, CORNING #3640.
The test system of another test is Candida albicans. Nature of the test: microbe, parasite or virus in culture. Particulars: ATCC 90028, ASSAY_TEST Inhibition of Fungal Growth, detection method Absorption (OD530), plate type 384well, NBS, CORNING #3640.

Description for Acinetobacter baumannii: Antibacterial activity against Acinetobacter baumannii ATCC 19606 (CO-ADD:GN_034); MIC in CAMBH media using NBS plates, by OD600
Description for Candida albicans: Antifungal activity against Candida albicans ATCC 90028 (CO-ADD:FG_001); MIC in YNB media using NBS plates, by OD630
Description for Cryptococcus neoformans: Antifungal activity against Cryptococcus neoformans H99 ATCC 208821 (CO-ADD:FG_002); MIC in YNB media using NBS plates, by Resazurin OD(600-570)
Description for Escherichia coli: Antibacterial activity against Escherichia coli ATCC 25922 (CO-ADD:GN_001); MIC in CAMBH media using NBS plates, by OD(600)
Description for Klebsiella pneumoniae: Antibacterial activity against Klebsiella pneumoniae MDR ATCC 70063 (CO-ADD:GN_003); MIC in CAMBH media using NBS plates, by OD(600)
Description for Pseudomonas aeruginosa: Antibacterial activity against Pseudomonas aeruginosa ATCC 27853 (CO-ADD:GN_042); MIC in CAMBH media using NBS plates, by OD(600)
Description for Staphylococcus aureus: Antibacterial activity against Staphylococcus aureus MRSA ATCC 43300 (CO-ADD:GP_020); MIC in CAMBH media, using NBS plates, by OD(600)

For `O=C(O)c1[nH]c(=O)[nH]c(=O)c1F`, the MIC in the test with Acinetobacter baumannii, against Escherichia coli, against Staphylococcus aureus, in the test with Cryptococcus neoformans, in the test on Klebsiella pneumoniae and in the test with Pseudomonas aeruginosa was > 10 µM throughout. Besides, in the test with Candida albicans, the MIC is > 10 µM. The CC50 in the test with HEK293 is > 10 µM.
As to `c1ccc2nc(OCCN3CC3)ccc2c1`, the MIC in the test with Acinetobacter baumannii, against Escherichia coli, with Staphylococcus aureus, in the test on Cryptococcus neoformans, against Klebsiella pneumoniae and in the test on Pseudomonas aeruginosa was > 10 µM throughout. Further, the MIC against Candida albicans is > 10 µM. Also, the CC50 with HEK293 was > 10 µM.
On to `CCN1CCCC(Sc2nc3c(=S)n(C)c(=O)n(C)c3[nH]2)C1` (stereo not drawn), for which the MIC with Acinetobacter baumannii, against Escherichia coli, against Staphylococcus aureus, in the test with Cryptococcus neoformans, against Klebsiella pneumoniae and with Pseudomonas aeruginosa was > 10 µM in each case. Moreover, the MIC in the test with Candida albicans is > 10 µM. Moreover, the CC50 with HEK293 is > 10 µM.
As to `Oc1c(CN2CCN(c3ccccc3)CC2)cc(Br)c2cccnc12`, the MIC against Acinetobacter baumannii, in the test on Escherichia coli, against Staphylococcus aureus, against Cryptococcus neoformans, with Klebsiella pneumoniae and in the test with Pseudomonas aeruginosa was > 10 µM each time. For the same compound, the MIC against Candida albicans was > 10 µM. Further, the CC50 in the test with HEK293 was > 10 µM.
For the compound `OC(c1cc(-c2ccc(Cl)cc2)nc2ccccc12)C1CCCCN1` (stereo not drawn), the MIC in the test on Acinetobacter baumannii, with Escherichia coli, in the test with Staphylococcus aureus, against Cryptococcus neoformans, against Klebsiella pneumoniae and in the test on Pseudomonas aeruginosa was > 10 µM throughout. The MIC in the test on Candida albicans was > 10 µM. Besides, the CC50 with HEK293 is > 10 µM.
On to `Oc1cccc2nc3ccccc3nc12`, for which the MIC with Acinetobacter baumannii, in the test with Escherichia coli, in the test with Staphylococcus aureus, in the test with Cryptococcus neoformans, with Klebsiella pneumoniae and against Pseudomonas aeruginosa was > 10 µM in each case. In the test on Candida albicans, the MIC was > 10 µM. Also, the CC50 in the test with HEK293 was > 10 µM.
Turning to `CC(C)=NNc1ncnc2[nH]cnc12`, the MIC in the test with Acinetobacter baumannii was > 10 µM; against Escherichia coli, > 10 µM; against Staphylococcus aureus, > 10 µM; with Cryptococcus neoformans it was 10 µM (≈ 1.9 µg/mL); with Klebsiella pneumoniae, > 10 µM; in the test with Pseudomonas aeruginosa, > 10 µM. Further, the MIC against Candida albicans was 2.5 µM (≈ 0.476 µg/mL). Moreover, the CC50 in the test on HEK293 is > 10 µM.
For the compound `Sc1nc2ccc(Cl)cc2s1`, the MIC in the test on Acinetobacter baumannii, in the test with Escherichia coli, against Staphylococcus aureus, with Cryptococcus neoformans, with Klebsiella pneumoniae and in the test on Pseudomonas aeruginosa was > 10 µM in each case. The MIC against Candida albicans is 10 µM (≈ 2.02 µg/mL). Further, the CC50 in the test with HEK293 is > 10 µM.
Turning to `Clc1ccc(SCNc2ccccc2Cl)cc1`, the MIC against Acinetobacter baumannii, against Escherichia coli, against Staphylococcus aureus, against Cryptococcus neoformans, with Klebsiella pneumoniae and in the test on Pseudomonas aeruginosa was > 10 µM in each case. Moreover, the MIC in the test with Candida albicans is > 10 µM. Besides, the CC50 in the test on HEK293 is > 10 µM.
Consider `Nc1ncnc2c1ncn2C1OC(COS(N)(=O)=O)C(O)C1O` (stereo not drawn), for which the MIC against Acinetobacter baumannii is > 10 µM; against Escherichia coli it was > 10 µM; against Staphylococcus aureus, 5 µM (≈ 1.73 µg/mL); in the test on Cryptococcus neoformans it was > 10 µM; in the test with Klebsiella pneumoniae it was > 10 µM; in the test on Pseudomonas aeruginosa, > 10 µM. Further, in the test with Candida albicans, the MIC was > 10 µM. The compound also came in with a CC50 in the test with HEK293 of 0.227 µM.
Regarding `O=C(Nc1ccccc1)C1=C(Nc2ccccc2)CSC1`, the MIC against Acinetobacter baumannii, in the test on Escherichia coli, against Staphylococcus aureus, with Cryptococcus neoformans, against Klebsiella pneumoniae and in the test with Pseudomonas aeruginosa was > 10 µM each time. Also, the MIC in the test with Candida albicans is > 10 µM. The CC50 with HEK293 is > 10 µM.
`O=C(O)C(=O)Nc1nc[nH]n1`: the MIC against Acinetobacter baumannii, against Escherichia coli, in the test on Staphylococcus aureus, in the test on Cryptococcus neoformans, in the test with Klebsiella pneumoniae and in the test on Pseudomonas aeruginosa was > 10 µM throughout. Moreover, the MIC in the test on Candida albicans was > 10 µM. Further, the CC50 in the test with HEK293 was > 10 µM.
As for `Cc1ccc(NCCN(C)C)c2c(=O)c3cc(O)ccc3sc12`, the MIC against Acinetobacter baumannii, in the test with Escherichia coli, with Staphylococcus aureus, in the test on Cryptococcus neoformans, against Klebsiella pneumoniae and with Pseudomonas aeruginosa was > 10 µM in each case. The MIC against Candida albicans is > 10 µM. The same compound returned a CC50 with HEK293 of 1.3 µM.
On to `COC(=O)C1(F)C(=O)NC(=O)NC1OC` (stereo not drawn), for which the MIC in the test on Acinetobacter baumannii is > 10 µM; in the test with Escherichia coli, > 10 µM; in the test with Staphylococcus aureus, 5 µM (≈ 1.1 µg/mL); in the test on Cryptococcus neoformans, > 10 µM; in the test on Klebsiella pneumoniae it was > 10 µM; in the test with Pseudomonas aeruginosa, > 10 µM. Further, in the test with Candida albicans, the MIC is > 10 µM. For the same compound, the CC50 in the test on HEK293 is > 10 µM.
Consider `Cn1ccc(=Nc2ccc(NC(=O)c3ccc(/N=c4\ccn(C)c5ccc([N+](=O)[O-])cc45)cc3)cc2)cc1`, for which the MIC was > 10 µM in the test on Acinetobacter baumannii; 10 µM (≈ 5.05 µg/mL) against Escherichia coli; 10 µM (≈ 5.05 µg/mL) against Staphylococcus aureus; 5 µM (≈ 2.52 µg/mL) against Cryptococcus neoformans; > 10 µM in the test on Klebsiella pneumoniae; > 10 µM against Pseudomonas aeruginosa. Besides, the MIC in the test on Candida albicans is > 10 µM. In the test on HEK293, the CC50 was > 10 µM.
On to `COC12C(COC(N)=O)C3=C(C(=O)C(C)=C(N)C3=O)N1CC1C2N1C` (stereo not drawn), for which the MIC against Acinetobacter baumannii is > 10 µM; in the test on Escherichia coli, 5 µM (≈ 1.74 µg/mL); in the test on Staphylococcus aureus it was 0.156 µM (≈ 0.0544 µg/mL); with Cryptococcus neoformans, > 10 µM; against Klebsiella pneumoniae, > 10 µM; with Pseudomonas aeruginosa, > 10 µM. Moreover, the MIC against Candida albicans is > 10 µM. The CC50 in the test with HEK293 was > 10 µM.
For `NC1(N2SC(S)=C3CCCC=C32)CCCCC1`, the MIC against Acinetobacter baumannii was > 10 µM; in the test on Escherichia coli, > 10 µM; in the test with Staphylococcus aureus, 10 µM (≈ 2.68 µg/mL); in the test on Cryptococcus neoformans it was > 10 µM; with Klebsiella pneumoniae, > 10 µM; in the test with Pseudomonas aeruginosa, > 10 µM. In addition, the MIC with Candida albicans is > 10 µM. Besides, the CC50 in the test with HEK293 is > 10 µM.
On to `O=C(/C=C/c1cccnc1)c1ccccc1O`, for which the MIC with Acinetobacter baumannii, in the test on Escherichia coli, against Staphylococcus aureus, in the test with Cryptococcus neoformans, in the test on Klebsiella pneumoniae and against Pseudomonas aeruginosa was > 10 µM throughout. In the test with Candida albicans, the MIC is > 10 µM. Further, the CC50 with HEK293 is > 10 µM.
As to `Nc1nc(N)c2c(ccc3[nH]ccc32)n1`, the MIC with Acinetobacter baumannii, against Escherichia coli, against Staphylococcus aureus, in the test on Cryptococcus neoformans, against Klebsiella pneumoniae and in the test with Pseudomonas aeruginosa was > 10 µM each time. Besides, in the test on Candida albicans, the MIC was > 10 µM. Besides, the CC50 with HEK293 is > 10 µM.
In the case of `CCCCOc1ccc(/N=N\c2ccc(N)nc2N)cn1`, the MIC in the test with Acinetobacter baumannii, against Escherichia coli, against Staphylococcus aureus, in the test with Cryptococcus neoformans, against Klebsiella pneumoniae and in the test on Pseudomonas aeruginosa was > 10 µM throughout. Moreover, the MIC in the test on Candida albicans is > 10 µM. In addition, the CC50 in the test with HEK293 was > 10 µM.
For the compound `Cc1cc(N)c2cc(NC(=O)/C=C\c3ccccc3Cl)ccc2n1`, the MIC with Acinetobacter baumannii is > 10 µM; against Escherichia coli, > 10 µM; in the test on Staphylococcus aureus, 10 µM (≈ 3.38 µg/mL); in the test with Cryptococcus neoformans it was 5 µM (≈ 1.69 µg/mL); against Klebsiella pneumoniae, > 10 µM; in the test on Pseudomonas aeruginosa, > 10 µM. In addition, the MIC with Candida albicans was > 10 µM. In addition, half-maximal cytotoxicity in the test on HEK293 (CC50) was put at 2.78 µM.
